We go through 1 compound from ChEMBL document CHEMBL1135481, “SMall Molecule Growth 2001 (SMoG2001): an improved knowledge-based scoring function for protein-ligand interactions” (J Med Chem, 2002).

Molecules are shown by their SMILES.

For the assay, the target named is Prothrombin (Homo sapiens) (UniProt P00734). The assay is described as follows: Binding affinity against thrombin.

`NC(N)=NCCC[C@H](NC(=O)[C@@H]1CCCN1C(=O)C(N)Cc1ccccc1)C(=O)O` (stereo in doubt) registered a Log Kd of -6.24.
